Results reported in ChEMBL document CHEMBL5325512, “Sub-stoichiometric Modulation of Viral Targets-Potent Antiviral Agents That Exploit Target Vulnerability” (ACS Med Chem Lett, 2023).

Legend:
[1] = tested on: Human immunodeficiency virus 1; assay: Antiviral activity against wild type HIV 1 NL4-3; format: functional, organism-based; details: Human immunodeficiency virus 1, NL4-3
[2] = tested on: Human immunodeficiency virus 1; assay: Antiviral activity against wild type HIV 1 in presence of human serum albumin; format: functional, organism-based
[3] = tested on: Human immunodeficiency virus 1; assay: Antiviral activity against HIV 1 harbouring V362I/V370 mutant; format: functional, organism-based
[4] = tested on: Human immunodeficiency virus 1; assay: Antiviral activity against HIV 1 harbouring deltaV370 mutant; format: functional, organism-based
[5] = tested on: Human immunodeficiency virus 1; assay: Antiviral activity against HIV1 harbouring T332S/V362I/prR41G mutant; format: functional, organism-based
[6] = tested on: Human immunodeficiency virus 1; assay: Antiviral activity against HIV 1 harbouring V370A mutant; format: functional, organism-based
[7] = biological target: Human immunodeficiency virus type 1 Gag protein (Human immunodeficiency virus 1) (UniProt Q77YG1); assay: Binding affinity to HIV1 wild type Gag assessed as dissociation half life
[8] = tested on: Human immunodeficiency virus 1; assay: Binding affinity to HIV1 Gag V370A/deltaT371 mutant assessed as dissociation half life
[9] = tested on: Human immunodeficiency virus 1; assay: Binding affinity to HIV1 Gag deltaV370A mutant assessed as dissociation half life
[10] = tested on: Gag-Pol polyprotein (Human immunodeficiency virus type 1 group M subtype B (isolate HXB2)(HIV-1)), P04585 [V362I]; assay: Binding affinity to HIV1 Gag V362I mutant assessed as dissociation half life; details: Human immunodeficiency virus 1
[11] = tested on: Gag-Pol polyprotein (Human immunodeficiency virus type 1 group M subtype B (isolate HXB2)(HIV-1)), P04585 [V370A]; assay: Binding affinity to HIV1 Gag V370A mutant assessed as dissociation half life; details: Human immunodeficiency virus 1
[12] = tested on: Human immunodeficiency virus 1; assay: Binding affinity to HIV1 Gag V362I/V370A mutant assessed as dissociation half life
[13] = tested on: Gag-Pol polyprotein (Human immunodeficiency virus type 1 group M subtype B (isolate HXB2)(HIV-1)), P04585 [A364V]; assay: Binding affinity to HIV1 Gag A364V mutant assessed as dissociation half life; details: Human immunodeficiency virus 1
[14] = tested on: Human immunodeficiency virus 1; assay: Antiviral activity against wild type HIV 1; format: functional, organism-based
[15] = tested on: Human immunodeficiency virus 1; assay: Antiviral activity against HIV 1 harbouring A362T/V362I/V370 mutant; format: functional, organism-based
[16] = tested on: Human immunodeficiency virus 1; assay: Antiviral activity against HIV 1 harbouring R361K/V362I/L363M mutant; format: functional, organism-based
[17] = tested on: Human immunodeficiency virus 1; assay: Antiviral activity against HIV 1 harbouring A364V mutant; format: functional, organism-based
[18] = Selectivity ratio of EC50 for antiviral activity against HIV1 harbouring V362I/V370A mutant to EC50 for antiviral activity against wild type HIV1; format: functional, Human immunodeficiency virus 1
[19] = Selectivity ratio of EC50 for antiviral activity against HIV1 harbouring V370A mutant to EC50 for antiviral activity against wild type HIV1; format: functional, Human immunodeficiency virus 1
[20] = Selectivity ratio of EC50 for antiviral activity against HIV1 harbouring deltaV370A mutant to EC50 for antiviral activity against wild type HIV1; format: functional, Human immunodeficiency virus 1
[21] = Selectivity ratio of EC50 for antiviral activity against HIV1 harbouring T332S/V362I/prR41G mutant to EC50 for antiviral activity wild type HIV1; format: functional, Human immunodeficiency virus 1
[22] = Selectivity ratio of EC50 for antiviral activity against HIV1 harbouring A362T/V362I/V370A mutant to EC50 for antiviral activity wild type HIV1; format: functional, Human immunodeficiency virus 1
[23] = Selectivity ratio of EC50 for antiviral activity against HIV1 harbouring R361K/V362I/L363M mutant to EC50 for antiviral activity wild type HIV1; format: functional, Human immunodeficiency virus 1
[24] = Selectivity ratio of EC50 for antiviral activity against HIV1 harbouring A364V mutant to EC50 for antiviral activity wild type HIV1; format: functional, Human immunodeficiency virus 1
[25] = tested on: Human immunodeficiency virus 1; assay: Antiviral activity against HIV1 infected in human assessed as reduction in Plasma viremia by measuring HIV1 RNA at 10 mg/kg after 10 days; format: functional; details: time 10 day
[26] = tested on: Human immunodeficiency virus 1; assay: Antiviral activity against HIV1 infected in human assessed as reduction in Plasma viremia by measuring HIV1 RNA at 40 mg/kg after 7 days; format: functional; details: time 7 day
[27] = tested on: Human immunodeficiency virus 1; assay: Antiviral activity against HIV1 infected in human assessed as reduction in Plasma viremia by measuring HIV1 RNA at 80 mg/kg after 7 days; format: functional; details: time 7 day
[28] = tested on: Human immunodeficiency virus 1; assay: Antiviral activity against HIV1 infected in human assessed as reduction in Plasma viremia by measuring HIV1 RNA at 140 mg/kg after 7 days; format: functional; details: time 7 day
[29] = tested on: Human immunodeficiency virus 1; assay: Antiviral activity against HIV1 infected in human assessed as reduction in Plasma viremia by measuring HIV1 RNA at 200 mg/kg after 10 days; format: functional; details: time 10 day

Row | SMILES | EC50 [1] [nM] | EC50 [2] [nM] | EC50 [3] [nM] | EC50 [4] [nM] | EC50 [5] [nM] | EC50 [6] [nM] | T1/2 [7] [h] | T1/2 [8] [h] | T1/2 [9] [h] | T1/2 [12] [h] | T1/2 [13] [min] | EC50 [14] [nM] | EC50 [15] [nM] | EC50 [16] [nM] | EC50 [17] [nM] | Ratio EC50 [18] | Ratio EC50 [19] | Ratio EC50 [20] | Ratio EC50 [21] | Ratio EC50 [22] | further results
1 | C=C(C)[C@@H]1CC[C@]2(NCCN3CCS(=O)(=O)CC3)CC[C@]3(C)[C@H](CC[C@@H]4[C@@]5(C)CC=C(C6=CC[C@@H](C(=O)O)CC6)C(C)(C)[C@@H]5CC[C@]43C)[C@@H]12 | 3 | 5 | 15 | 3 | 19 | – | – | – | – | – | – | – | – | – | – | – | – | – | – | – | –
2 | C=C(C)[C@@H]1CC[C@]2(NCCN3CCS(=O)(=O)CC3)CC[C@]3(C)[C@H](CC[C@@H]4[C@@]5(C)CC=C(C6=CC[C@@](CF)(C(=O)O)CC6)C(C)(C)[C@@H]5CC[C@]43C)[C@@H]12 [FIPRAVIRIMAT] | – | – | 3 | 3 | 7 | 2 | 6.02 | 7.65 | 5.25 | 3.78 | < 1 | 3 | 26 | 3 | 274 | 1 | 0.7 | 1 | 2.3 | 8.7 | T1/2 [10]: 4.48 h; T1/2 [11]: 7.23 h; Ratio EC50 [23]: 1; Ratio EC50 [24]: 91; Activity [25]: -0.4; Activity [26]: -1.2; Activity [27]: -1; Activity [28]: -1.5; Activity [29]: -2
3 | C=C(C)[C@@H]1CC[C@]2(NCCN3CCS(=O)(=O)CC3)CC[C@]3(C)[C@H](CC[C@@H]4[C@@]5(C)CC=C(c6ccc(C(=O)O)cc6)C(C)(C)[C@@H]5CC[C@]43C)[C@@H]12 [BMS-955176] | – | – | > 3000 | 6 | 704 | 6 | 0.85 | 0.8 | 0.767 | 0.583 | < 1 | 5 | > 3000 | 552 | > 3000 | >600 | 1.2 | 1.2 | 141 | >600 | Ratio EC50 [23]: 110; Ratio EC50 [24]: >600
4 | C=C(C)[C@@H]1CC[C@]2(NCCN3CCS(=O)(=O)CC3)CC[C@]3(C)[C@H](CC[C@@H]4[C@@]5(C)CC=C(C6=CCC(C(=O)O)CC6)C(C)(C)[C@@H]5CC[C@]43C)[C@@H]12 (stereo partly specified) | 0.6 | 9 | – | 2 | – | 0.7 | – | – | – | – | – | – | – | – | – | – | – | – | – | – | –
